Laboratory results: ChEMBL document CHEMBL4706604, “Design, synthesis and biological evaluation of indanone-chalcone hybrids as potent and selective hCES2A inhibitors” (Eur J Med Chem, 2021)

Assays:
Cocaine esterase = target: T1, Cocaine esterase (Homo sapiens, UniProt O00748); test: Inhibition of hCES2A in human liver microsome assessed as reduction in fluorescein diacetate hydrolysis preincubated for 10 mins followed by substrate addition measured after 20 mins by fluorescence analysis; assay type: microsomes
T1 sequence (O00748 whole entry): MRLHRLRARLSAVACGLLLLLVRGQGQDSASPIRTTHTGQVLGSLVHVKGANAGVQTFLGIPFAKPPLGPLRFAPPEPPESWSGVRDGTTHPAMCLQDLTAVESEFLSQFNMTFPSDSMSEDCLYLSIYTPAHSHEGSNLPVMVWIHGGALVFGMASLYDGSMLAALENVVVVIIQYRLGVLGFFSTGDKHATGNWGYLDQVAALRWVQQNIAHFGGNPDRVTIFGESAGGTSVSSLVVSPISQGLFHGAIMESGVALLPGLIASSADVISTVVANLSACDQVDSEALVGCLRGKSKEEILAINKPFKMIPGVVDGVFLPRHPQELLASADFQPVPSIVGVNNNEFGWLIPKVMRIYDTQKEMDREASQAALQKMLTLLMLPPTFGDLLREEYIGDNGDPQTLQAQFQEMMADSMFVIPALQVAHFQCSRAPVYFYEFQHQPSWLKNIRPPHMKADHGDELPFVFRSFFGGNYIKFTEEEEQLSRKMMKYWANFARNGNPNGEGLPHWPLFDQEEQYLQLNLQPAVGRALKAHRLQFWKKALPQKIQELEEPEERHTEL

Cholinesterase = Cholinesterase (Homo sapiens, UniProt P06276); test: Inhibition of BChE in human plasma assessed as reduction in butyrylthiocholineiodide hydrolysis preincubated for 3 mins followed by substrate addition; assay type: cell-free
[1] = Metabolic stability at phase 1 in human liver microsomes assessed as half life at 10 uM by LC-UV analysis
Liver carboxylesterase 1 = target: T2, Liver carboxylesterase 1 (Homo sapiens, UniProt P23141); test: Inhibition of hCES1A in human liver microsome assessed as reduction in D-Iuciferin methyl ester hydrolysis preincubated for 10 mins followed by substrate addition measured after 10 mins by luminescence analysis; assay type: microsomes
T2 sequence (P23141 whole entry): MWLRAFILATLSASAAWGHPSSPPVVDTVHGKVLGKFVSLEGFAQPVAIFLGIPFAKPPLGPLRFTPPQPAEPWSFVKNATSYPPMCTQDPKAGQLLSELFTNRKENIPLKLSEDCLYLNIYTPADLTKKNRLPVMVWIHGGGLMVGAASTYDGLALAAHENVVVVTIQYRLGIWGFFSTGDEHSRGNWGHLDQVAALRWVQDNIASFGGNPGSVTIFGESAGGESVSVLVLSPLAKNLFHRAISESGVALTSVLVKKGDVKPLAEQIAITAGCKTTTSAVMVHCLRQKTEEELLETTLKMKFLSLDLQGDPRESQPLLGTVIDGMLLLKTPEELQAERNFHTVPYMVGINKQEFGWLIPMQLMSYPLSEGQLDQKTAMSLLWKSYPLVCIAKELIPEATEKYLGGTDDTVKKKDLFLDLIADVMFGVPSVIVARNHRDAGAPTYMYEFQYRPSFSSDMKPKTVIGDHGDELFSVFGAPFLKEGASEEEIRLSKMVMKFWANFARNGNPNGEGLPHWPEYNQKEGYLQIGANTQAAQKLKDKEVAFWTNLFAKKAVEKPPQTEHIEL

[2] = Metabolic stability at phase 2 in human liver microsomes assessed as half life at 10 uM by LC-UV analysis

Chain of Cholinesterase (P06276 whole entry): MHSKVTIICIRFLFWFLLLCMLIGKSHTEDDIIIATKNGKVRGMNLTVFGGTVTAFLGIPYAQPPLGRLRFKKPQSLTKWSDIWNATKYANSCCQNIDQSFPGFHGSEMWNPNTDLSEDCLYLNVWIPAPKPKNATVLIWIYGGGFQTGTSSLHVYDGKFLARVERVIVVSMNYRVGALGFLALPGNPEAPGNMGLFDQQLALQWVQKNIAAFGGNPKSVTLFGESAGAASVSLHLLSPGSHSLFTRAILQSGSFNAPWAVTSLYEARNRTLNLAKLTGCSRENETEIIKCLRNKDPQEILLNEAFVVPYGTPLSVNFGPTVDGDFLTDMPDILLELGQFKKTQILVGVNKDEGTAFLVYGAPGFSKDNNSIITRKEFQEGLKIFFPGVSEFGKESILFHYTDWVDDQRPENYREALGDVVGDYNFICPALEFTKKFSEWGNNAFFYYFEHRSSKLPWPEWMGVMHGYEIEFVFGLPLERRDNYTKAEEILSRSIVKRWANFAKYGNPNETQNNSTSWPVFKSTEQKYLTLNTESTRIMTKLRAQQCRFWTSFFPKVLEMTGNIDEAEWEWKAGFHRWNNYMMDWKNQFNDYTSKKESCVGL

O=C1/C(=C/c2ccc(O)cc2)Cc2ccc(O)cc21
IC50 (Cocaine esterase): 5.94 µM

COc1cc(/C=C2\Cc3ccc(OC(C)C)cc3C2=O)ccc1O
IC50 (Cocaine esterase): 2.86 µM

COc1cc(/C=C2\Cc3ccc(O)cc3C2=O)ccc1O
IC50 (Cocaine esterase): 1.09 µM

COc1ccc(/C=C2\Cc3ccc(O)cc3C2=O)cc1
IC50 (Cocaine esterase): 56 µM

COc1cc(/C=C2\Cc3ccc(N)cc3C2=O)ccc1O
IC50 (Cocaine esterase): 1.48 µM

CCCOc1ccc2c(c1)C(=O)/C(=C/c1ccc(O)c(OC)c1)C2
IC50 (Cocaine esterase): 1.62 µM

COc1ccc2c(c1)C(=O)/C(=C/c1ccc(O)c(OC)c1)C2
IC50 (Cocaine esterase): 2.91 µM

COc1ccc(/C=C2\Cc3ccc(O)cc3C2=O)c(OC)c1OC
IC50 (Cocaine esterase): 5.23 µM

COc1cc(/C=C2\Cc3ccccc3C2=O)ccc1O
IC50 (Cocaine esterase): 1.31 µM

O=C1/C(=C/c2ccc(O)c(O)c2)Cc2ccc(O)cc21
IC50 (Cocaine esterase): 2.81 µM

COc1cc(/C=C2\Cc3ccc(N4CCCC4)cc3C2=O)ccc1O
IC50 (Cholinesterase): > 100 µM | half-life at 10 µM [1]: 1.6 h | IC50 (Liver carboxylesterase 1): > 100 µM | half-life at 10 µM [2]: 1.72 h
